Positions of bridges follow the written chain, without caps; N, C: chain ends. Residues, ends and D or L forms follow the SMILES beside them.
How the values were obtained:
[1] = biological target: T1, Glucagon-like peptide 1 receptor (Homo sapiens, UniProt P43220); test: Agonist activity at human GLP1R expressed in CHO cells assessed as cAMP accumulation incubated for 30 mins by LANCE assay; assay type: functional, cell-based
[2] = biological target: T1, Glucagon-like peptide 1 receptor; test: Agonist activity at human GLP1R expressed in CHOK1 cells assessed as induction of beta-galactosidase-tagged beta-arrestin2 recruitment incubated for 90 mins by PathHunter enzyme complementation assay; assay type: cell-based
[3] = biological target: T1, Glucagon-like peptide 1 receptor; test: Displacement of [125I]-GLP (7 to 36 residues) from human GLP1R expressed in CHO cell membranes incubated for 30 mins measured after 10 hrs by scintillation proximity assay

T1 sequence (P43220 whole entry): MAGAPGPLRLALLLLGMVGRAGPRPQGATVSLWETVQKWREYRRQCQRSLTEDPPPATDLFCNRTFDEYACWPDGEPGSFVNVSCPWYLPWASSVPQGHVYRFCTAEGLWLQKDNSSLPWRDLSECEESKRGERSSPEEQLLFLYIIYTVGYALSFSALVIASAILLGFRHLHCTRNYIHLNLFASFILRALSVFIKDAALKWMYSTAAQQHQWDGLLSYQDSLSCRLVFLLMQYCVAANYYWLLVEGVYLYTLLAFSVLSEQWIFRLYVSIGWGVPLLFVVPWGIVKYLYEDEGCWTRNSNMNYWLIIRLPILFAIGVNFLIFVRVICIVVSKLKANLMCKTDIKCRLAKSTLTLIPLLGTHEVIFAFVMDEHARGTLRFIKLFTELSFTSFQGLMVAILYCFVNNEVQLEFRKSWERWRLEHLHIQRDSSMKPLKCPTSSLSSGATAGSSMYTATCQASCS

In the case of `CC[C@H](C)[C@H](NC(=O)[C@H](Cc1ccccc1)NC(=O)[C@H](CCC(=O)O)NC(=O)[C@H](CCCCN)NC(=O)[C@H](C)NC(=O)[C@H](C)NC(=O)[C@H](CCC(N)=O)NC(=O)CNC(=O)[C@H](CCC(=O)O)NC(=O)[C@H](CC(C)C)NC(=O)[C@H](Cc1ccc(O)cc1)NC(=O)[C@H](CO)NC(=O)[C@H](CO)NC(=O)[C@@H](NC(=O)[C@H](CC(=O)O)NC(=O)[C@H](CO)NC(=O)[C@@H](NC(=O)[C@H](Cc1ccccc1)NC(=O)[C@@H](NC(=O)CNC(=O)[C@@H]1CSCC(=O)N[C@@H](Cc2cnc[nH]2)C(=O)N[C@@H](C)C(=O)N1)[C@@H](C)O)[C@@H](C)O)C(C)C)C(=O)N[C@@H](C)C(=O)N[C@@H](Cc1c[nH]c2ccccc12)C(=O)N[C@@H](CC(C)C)C(=O)N[C@H](C(=O)N[C@@H](CCCCN)C(=O)NCC(=O)N[C@@H](CCCNC(=N)N)C(=O)NCC(N)=O)C(C)C`, the EC50 [1] is reported as 300 nM and the EC50 [2] is reported as > 10000 nM.

`CC[C@H](C)[C@H](NC(=O)[C@H](Cc1ccccc1)NC(=O)[C@H](CCC(=O)O)NC(=O)[C@H](CCCCN)NC(=O)[C@H](C)NC(=O)[C@H](C)NC(=O)[C@H](CCC(N)=O)NC(=O)[C@@H]1CCC(=O)NCCCC[C@H](NC(=O)[C@H](CO)NC(=O)[C@H](Cc2ccc(O)cc2)NC(=O)[C@H](CC(=O)O)NC(=O)[C@H](CO)NC(=O)[C@@H](NC(=O)[C@H](Cc2ccccc2)NC(=O)[C@@H](NC(=O)CNC(=O)[C@H](CCC(=O)O)NC(=O)[C@H](C)NC(=O)[C@@H](N)Cc2cnc[nH]2)[C@@H](C)O)[C@@H](C)O)C(=O)N[C@@H](Cc2ccc(O)cc2)C(=O)N[C@@H](CC(C)C)C(=O)N[C@@H](CCC(=O)O)C(=O)N1)C(=O)N[C@H]1CCCCNC(=O)C[C@@H](C(=O)NCC(=O)N[C@@H](CCCNC(=N)N)C(=O)NCC(N)=O)NC(=O)[C@H](C(C)C)NC(=O)[C@H](CC(C)C)NC(=O)[C@H](Cc2c[nH]c3ccccc23)NC1=O` (H-HAEGTFTSDYSKYLEEQAAKEFIKWLVDGRG-NH2; lactam 12-16, 24-28) showed an EC50 [1] of 0.009 nM, a Ki [3] of 0.82 nM and an EC50 [2] of 8.8 nM.

With `CC[C@H](C)[C@H](NC(=O)[C@H](Cc1ccccc1)NC(=O)[C@H](CCC(=O)O)NC(=O)[C@H](CCCCN)NC(=O)[C@H](C)NC(=O)[C@H](C)NC(=O)[C@H](CCC(N)=O)NC(=O)[C@H](C)NC(=O)[C@H](CCC(=O)O)NC(=O)[C@H](CC(C)C)NC(=O)[C@H](Cc1ccc(O)cc1)NC(=O)[C@H](CO)NC(=O)[C@H](CO)NC(=O)[C@H](Cc1ccc(O)cc1)NC(=O)[C@H](CC(=O)O)NC(=O)[C@H](CO)NC(=O)[C@@H](NC(=O)[C@H](Cc1ccccc1)NC(=O)[C@@H](NC(=O)CNC(=O)[C@H](CCC(=O)O)NC(=O)[C@H](C)NC(=O)[C@@H](N)Cc1cnc[nH]1)[C@@H](C)O)[C@@H](C)O)C(=O)N[C@H]1CCCCNC(=O)C[C@@H](C(=O)NCC(=O)N[C@@H](CCCNC(=N)N)C(=O)NCC(N)=O)NC(=O)[C@H](C(C)C)NC(=O)[C@H](CC(C)C)NC(=O)[C@H](Cc2c[nH]c3ccccc23)NC1=O` (H-HAEGTFTSDYSSYLEAQAAKEFIKWLVDGRG-NH2; lactam 24-28) the EC50 [1] was 0.011 nM, the Ki [3] was 0.47 nM and the EC50 [2] was 4.6 nM.

`CC[C@H](C)[C@H](NC(=O)[C@H](Cc1ccccc1)NC(=O)[C@H](CCC(=O)O)NC(=O)[C@H](CCCCN)NC(=O)[C@H](C)NC(=O)[C@H](C)NC(=O)[C@H](CCC(N)=O)NC(=O)[C@@H]1CCCN1C(=O)[C@H](CCC(=O)O)NC(=O)[C@H](CC(C)C)NC(=O)[C@H](Cc1ccc(O)cc1)NC(=O)[C@H](CO)NC(=O)[C@H](CO)NC(=O)[C@@H](NC(=O)[C@H](CC(=O)O)NC(=O)[C@H](CO)NC(=O)[C@@H](NC(=O)[C@H](Cc1ccccc1)NC(=O)[C@@H](NC(=O)CNC(=O)[C@H](CCC(=O)O)NC(=O)[C@H](C)NC(=O)[C@@H](N)Cc1cnc[nH]1)[C@@H](C)O)[C@@H](C)O)C(C)C)C(=O)N[C@H]1CCCCNC(=O)C[C@@H](C(=O)NCC(=O)N[C@@H](CCCNC(=N)N)C(=O)NCC(N)=O)NC(=O)[C@H](C(C)C)NC(=O)[C@H](CC(C)C)NC(=O)[C@H](Cc2c[nH]c3ccccc23)NC1=O` (H-HAEGTFTSDVSSYLEPQAAKEFIKWLVDGRG-NH2; lactam 24-28) showed an EC50 [1] of 0.35 nM, a Ki [3] of 18 nM and an EC50 [2] of 33 nM.

Compound `CC[C@H](C)[C@H](NC(=O)[C@H](Cc1ccccc1)NC(=O)[C@H](CCC(=O)O)NC(=O)[C@H](CCCCN)NC(=O)[C@H](C)NC(=O)[C@H](C)NC(=O)[C@H](CCC(N)=O)NC(=O)[C@@H]1CCC(=O)NCCCC[C@H](NC(=O)[C@H](CO)NC(=O)[C@@H](NC(=O)[C@H](CC(=O)O)NC(=O)[C@H](CO)NC(=O)[C@@H](NC(=O)[C@H](Cc2ccccc2)NC(=O)[C@@H](NC(=O)CNC(=O)[C@H](CCC(=O)O)NC(=O)[C@H](C)NC(=O)[C@@H](N)Cc2cnc[nH]2)[C@@H](C)O)[C@@H](C)O)C(C)C)C(=O)N[C@@H](Cc2ccc(O)cc2)C(=O)N[C@@H](CC(C)C)C(=O)N[C@@H](CCC(=O)O)C(=O)N1)C(=O)N[C@H]1CCCCNC(=O)C[C@@H](C(=O)NCC(=O)N[C@@H](CCCNC(=N)N)C(=O)NCC(N)=O)NC(=O)[C@H](C(C)C)NC(=O)[C@H](CC(C)C)NC(=O)[C@H](Cc2c[nH]c3ccccc23)NC1=O` (H-HAEGTFTSDVSKYLEEQAAKEFIKWLVDGRG-NH2; lactam 12-16, 24-28) has an EC50 [1] of 0.05 nM.

With `CC[C@H](C)[C@H](NC(=O)[C@H](Cc1ccccc1)NC(=O)[C@H](CCC(=O)O)NC(=O)[C@H](CCCCN)NC(=O)[C@H](C)NC(=O)[C@H](C)NC(=O)[C@H](CCC(N)=O)NC(=O)CNC(=O)[C@H](CCC(=O)O)NC(=O)[C@@H]1CC(=O)NCCCC[C@H](NC(=O)[C@H](CC(=O)O)NC(=O)[C@H](CO)NC(=O)[C@@H](NC(=O)[C@H](Cc2ccccc2)NC(=O)[C@@H](NC(=O)CNC(=O)[C@H](CCC(=O)O)NC(=O)[C@H](C)NC(=O)[C@@H](N)Cc2cnc[nH]2)[C@@H](C)O)[C@@H](C)O)C(=O)N[C@@H](CO)C(=O)N[C@@H](CO)C(=O)N[C@@H](Cc2ccc(O)cc2)C(=O)N1)C(=O)N[C@H]1CCCCNC(=O)C[C@@H](C(=O)NCC(=O)N[C@@H](CCCNC(=N)N)C(=O)NCC(N)=O)NC(=O)[C@H](C(C)C)NC(=O)[C@H](CC(C)C)NC(=O)[C@H](Cc2c[nH]c3ccccc23)NC1=O` (H-HAEGTFTSDKSSYDEGQAAKEFIKWLVDGRG-NH2; lactam 10-14, 24-28) the EC50 [1] was 0.021 nM, the Ki [3] was 1.4 nM and the EC50 [2] was 12 nM.

`CC[C@H](C)[C@H](NC(=O)[C@H](Cc1ccccc1)NC(=O)[C@H](CCC(=O)O)NC(=O)[C@H](CCCCN)NC(=O)[C@H](C)NC(=O)[C@H](C)NC(=O)[C@H](CCC(N)=O)NC(=O)[C@@H](NC(=O)[C@H](CCC(=O)O)NC(=O)[C@H](CC(C)C)NC(=O)[C@H](Cc1ccc(O)cc1)NC(=O)[C@H](CO)NC(=O)[C@H](CO)NC(=O)[C@@H](NC(=O)[C@H](CC(=O)O)NC(=O)[C@H](CO)NC(=O)[C@@H](NC(=O)[C@H](Cc1ccccc1)NC(=O)[C@@H](NC(=O)CNC(=O)[C@H](CCC(=O)O)NC(=O)[C@H](C)NC(=O)[C@@H](N)Cc1cnc[nH]1)[C@@H](C)O)[C@@H](C)O)C(C)C)C(C)C)C(=O)N[C@H]1CCCCNC(=O)C[C@@H](C(=O)NCC(=O)N[C@@H](CCCNC(=N)N)C(=O)NCC(N)=O)NC(=O)[C@H](C(C)C)NC(=O)[C@H](CC(C)C)NC(=O)[C@H](Cc2c[nH]c3ccccc23)NC1=O` (H-HAEGTFTSDVSSYLEVQAAKEFIKWLVDGRG-NH2; lactam 24-28) showed an EC50 [1] of 0.1 nM, a Ki [3] of 1.5 nM and an EC50 [2] of 9 nM.

`CC[C@H](C)[C@H](NC(=O)[C@H](Cc1ccccc1)NC(=O)[C@H](CCC(=O)O)NC(=O)[C@H](CCCCN)NC(=O)[C@H](C)NC(=O)[C@H](C)NC(=O)[C@H](CCC(N)=O)NC(=O)[C@@H]1CC(=O)NCCCC[C@H](NC(=O)[C@H](CO)NC(=O)[C@@H](NC(=O)[C@H](CC(=O)O)NC(=O)[C@H](CO)NC(=O)[C@@H](NC(=O)[C@H](Cc2ccccc2)NC(=O)[C@@H](NC(=O)CNC(=O)[C@H](CCC(=O)O)NC(=O)[C@H](C)NC(=O)[C@@H](N)Cc2cnc[nH]2)[C@@H](C)O)[C@@H](C)O)C(C)C)C(=O)N[C@@H](Cc2ccc(O)cc2)C(=O)N[C@@H](CC(C)C)C(=O)N[C@@H](CCC(=O)O)C(=O)N1)C(=O)N[C@H]1CCCCNC(=O)C[C@@H](C(=O)NCC(=O)N[C@@H](CCCNC(=N)N)C(=O)NCC(N)=O)NC(=O)[C@H](C(C)C)NC(=O)[C@H](CC(C)C)NC(=O)[C@H](Cc2c[nH]c3ccccc23)NC1=O` (H-HAEGTFTSDVSKYLEDQAAKEFIKWLVDGRG-NH2; lactam 12-16, 24-28) gave an EC50 [1] of 0.013 nM, a Ki [3] of 0.94 nM and an EC50 [2] of 6.7 nM.

`CC[C@H](C)[C@H](NC(=O)[C@H](Cc1ccccc1)NC(=O)[C@H](CCC(=O)O)NC(=O)[C@H](CCCCN)NC(=O)[C@H](C)NC(=O)[C@H](C)NC(=O)[C@H](CCC(N)=O)NC(=O)CNC(=O)[C@H](CCC(=O)O)NC(=O)[C@H](CC(C)C)NC(=O)[C@H](Cc1ccc(O)cc1)NC(=O)[C@H](CO)NC(=O)[C@H](CO)NC(=O)[C@@H](NC(=O)[C@H](CC(=O)O)NC(=O)[C@H](CO)NC(=O)[C@@H](NC(=O)[C@H](Cc1ccccc1)NC(=O)[C@@H]1CSC(=O)CN[C@@H](Cc2cnc[nH]2)C(=O)N[C@@H](C)C(=O)N[C@@H](CCC(=O)O)C(=O)NCC(=O)N1)[C@@H](C)O)C(C)C)C(=O)N[C@@H](C)C(=O)N[C@@H](Cc1c[nH]c2ccccc12)C(=O)N[C@@H](CC(C)C)C(=O)N[C@H](C(=O)N[C@@H](CCCCN)C(=O)NCC(=O)N[C@@H](CCCNC(=N)N)C(=O)NCC(N)=O)C(C)C` was tested, and the EC50 [1] was > 10000 nM, the Ki [3] was > 50 nM and the EC50 [2] was > 10000 nM.
